Measured values as given in patent US5543410A, “Pharmacological use of phthaloylhydrazide derivatives; combination and application thereof” (L.I.M.A.D. Limited, priority 1993, dated 1996).
Where two headings read alike, the source gives them in different places.

Tests used:
[1] = test system: skin diseases; settings: 1 to 2 percent solution, two or three days
[2] = test system: cancer affecting the left breast, metastatic tumors
Method: During subsequent years, they had undergone radiation therapy and chemotherapy on multiple occasions on account of metastatic tumors.
On account of the severity of the patient's condition, intramuscular administration of the drug in 100 mg doses every two days was initiated.

[3] = test system: suppuration and abscesses affecting the jaw; settings: one day after
Method: The patients were subdivided into three groups according to alphabetical order. The drug was prescribed for every patient on one occasion, although different dosages were adopted (1 mg/kg; 2 mg/kg; 4 mg/kg).

[4] = test system: anal adenocarcinoma
Text: Kh., a patient who was […], had been diagnosed with an anal adenocarcinoma seven months earlier.
The diagnosis had been verified histologically. The patient cited pain in the anus, constipation, difficulty in defecating, and secretion of mucus and blood from the anus. On account of the patient's categorical refusal to undergo surgery for abdominoperineal excision of the rectum, radiation therapy had been provided in doses of […]. […] Forty days later, the patient underwent another cycle of radiation therapy, with doses of […]. During the next thirty days, the drug was administered in doses of 100 mg every four hours, in the form of rectal suppositories. […] For the next thirty days, the dosage of the drug was increased, and intramuscular administration of 100 mg per day was provided for this patient, along with a rectal suppository (100 mg).

[5] = test system: piglets affected by dysentery; assay: dysentery in piglets; type: in vivo
Method: Experiments were performed with piglets weighing from 30 to 40 kgs, which were affected by dysentery.
Nevertheless, symptoms reappeared six to seven hours later in one group of animals. This factor rendered repeated administration of the drug necessary.

[6] = test system: hemorrhoids
Text: (§1) Similarly, anal fissures have represented a difficult problem for modern medicine to resolve. In this instance, the inflammatory component is associated with a morphological defect.
The drug was used in the form of suppositories in 0.1 g doses once daily, in order to treat acute hemorrhoids in patients whose ages were from twenty to sixty years.

[7] = test system: psoriasis; settings: 2 to 5 mg/kg
[8] = test system: chronic inflammation of female genitalia; settings: 100 mg once each day
Method: The drug was administered to these patients in the form of rectal suppositories (to be inserted at night), in doses of 100 mg once each day, for a five-day period. Subsequently, vaginal insertion was performed for an additional period of two days.

[9] = test system: inflammation of the mucosae, chronic tonsillitis; assay: inflammation of the mucosae / chronic tonsillitis (gargling); type: in vivo; settings: gargling solution
[10] = test system: viral hepatitis B
Method: Rectal suppositories containing the drug, which was to be administered in doses of 100 mg per day for ten days, were prescribed for this patient.

[11] = test system: male rats; settings: rat, in vivo
Method: Blood pressure levels were tape-recorded, by means of an electrical kymograph.
At the same time, electrocardiograms for the second standard position were recorded, along with frequency and depth of breathing by means of a Morey capsule.

[12] = test system: male mice; settings: 30 and 60 mg/kg
Method: Doses of 30 mg/kg and 60 mg/kg according to body weight were used for studying pharmacological properties in relation to the central nervous system. Selection of this dosage level was based upon criteria in terms of safety in using drugs.
Neuropharmacological effects were studied in sexually mature male mice from unspecified strains. A solution of the drug was administered intraabdominally to these mice, with weights of 18.0 g to 20.0 g, and neuropharmacological effects were studied in terms of changes in the natural orientation reflex, in induced aggressiveness, and in muscle tone. Changes in natural orientation were recorded according to current methods. For determining the drug's influence upon induced aggressiveness, the electrical stimulation method (an electrical current which caused pain was transmitted) was adopted.
Changes in muscle tone were measured according to the "pivot pin" method.

[13] = test system: leucocytes; settings: inflammation of the cornea
[14] = test system: abortion induced by Salmonella typhinurium endotoxin; settings: 15 mg/kg; abortions in eighty percent without drug
[15] = test system: anal fissures
Method: as §1
The drug was administered to this group of patients in the form of suppositories, in doses of 100 mg every twelve hours, during a five-day period.

[16] = test system: mice exposed to carbon tetrachloride; settings: 10 to 20 mg/kg; control group 65 percent
[17] = 100 mg per day rectal suppositories
[18] = after five to six days of treatment

Nc1cccc2c(=O)[nH][nH]c(=O)c12
elimination of symptoms [1]: sufficient to eliminate symptoms of various diseases | intensity of pain ([2]; after first injection, 100 mg intramuscular every two days): the intensity of their pain decreased significantly | general condition ([2]; alternate days intramuscular): a steady improvement in the patient's general condition was observed | urine, urination, perspiration ([2]; in vivo): their urine became more dense, frequent urination began, and their perspiration acquired a rather foul odor | vomiting, stools ([2]; in vivo): vomiting began, and the patient's stools were malodorous | edema ([2]; thirteenth and fourteenth days): had diminished significantly | condition and appetite ([2]; twentieth day): the patient's condition improved, and their appetite was restored | therapeutic effect ([3]; 1 mg/kg): no therapeutic effect had occurred | patients with therapeutic effect ([3]; 2 mg/kg): four | patients with therapeutic effect ([3]; 4 mg/kg, each of the six patients): six | tumor size ([4]; 100 mg every four hours rectal, thirty days, after radiation): reduction of the tumor was observed | reduction of anal tumor in relation to its initial dimensions ([4]; 100 mg intramuscular per day plus 100 mg suppository, further thirty days): two-thirds | tumor dimensions and intoxication (conclusion) ([4]; combination with radiation therapy): reduction of the tumor's dimensions was therefore obtained within a brief period and symptoms of intoxication were eliminated | general condition ([4]; in vivo): an improvement of the patient's general condition was observed | effectiveness in alleviating diarrhea ([5]; 50 mg/kg, fourth series): limited effectiveness in alleviating diarrhea | therapeutic effect ([5]; 10, 25, and 50 mg/kg, third series): relatively insignificant | reappearance of dysentery symptoms ([5]; 20 and 50 mg/kg, second series): symptoms of dysentery reappeared at the end of the first day | instances with therapeutic effects ([5]; 20 and 50 mg/kg, sixteen animals, second series): six | recovery ([6]; 0.1 g once daily): The patients recovered fully | time until inflammatory process and enlargement of hemorrhoidal nodes disappeared ([6]; 0.1 g once daily): fifth | time until anal pain ceased ([6]; 0.1 g suppositories once daily): Seventeen to thirty | time to alleviation of pain syndrome ([6]; rectal administration): thirty | inflammatory process and edema ([6]; twelve hours): significant shrinkage of the inflammatory process and reduction of edema in hemorrhoidal nodes | development of psoriasis [7]: did not substantially influence the development of psoriasis | time to healing [8]: eighth | time until vaginal secretions ceased completely [8]: fifth | therapeutic effect ([8]; second day): the therapeutic effect was observable | inflammation of the mucosae [9]: favorable results were obtained | time to improvement (lethargy, pain disappeared) [10, 17]: third | time to normal biochemical blood data [10, 17]: tenth | chronic development of the process ([10]; six subsequent months): absence of chronic development of the process | bile pigments reaction ([10]; tenth day): negative | ultrasound examination of liver ([10]; tenth day): No pathological conditions affecting the liver were observed | symptoms and hepatic functions ([10]; volunteers, 2 to 5 mg/kg per day, initial phase of chronic stage): symptoms were eliminated and previously impaired hepatic functions were restored | average fluctuations in blood pressure levels in comparison with initial levels [11]: 2.79±0.72 | time to return of blood pressure to initial level [11]: thirty | rise in blood pressure in relation to the initial level ([11]; iv): 1.57±5.93% | threshold for sensitivity to pain [12]: did not alter the threshold for sensitivity to pain | natural orientation reflex ([12]; intraabdominal): did not suppress the natural orientation reflex | muscle tone ([12]; pivot pin method): did not cause changes in muscle tone | leucocyte adhesion properties and chemotaxis [13]: An increase in leucocyte adhesion properties and intensification of chemotaxis | abortion prevented [14]: seven | time until pain ceased ([15]; 100 mg suppositories every twelve hours): twenty to thirty | recurrences [15, 18]: Recurrences were not observed | regeneration of the mucosae [15, 18]: regeneration of the mucosae was visually observable | defecation and sphincter spasms ([15]; after the third suppository): defecation became painless, and spasms affecting the sphincter diminished | recovery ([15]; by the fifth day): the patients had practically recovered | other symptoms ([15]; rectal administration): other symptoms were also eliminated by the end of the first day of treatment | time to significant alleviation of the pain syndrome ([15]; rectal administration): twenty to forty | storage period (stable) (anhydrous conditions): > 1 year | expiration period (aqueous solution): > ten to twenty | mortality rate [16]: 14%
